This passage reports Activity results from ChEMBL document CHEMBL1157952, “Neocimicigenosides A and B, cycloartane glycosides from the rhizomes of Cimicifuga racemosa and their effects on CRF-stimulated ACTH secretion from AtT-20 cells” (2006).

In this assay the test system is AtT20. Briefly: Induction of corticotropin releasing factor-stimulated ACTH secretion in mouse AtT20 cells. Type of assay: functional.

On to `CC(=O)O[C@H]1[C@H]2C[C@@H](C)[C@H]3[C@](O2)(OC1(C)C)[C@H](O)[C@@]1(C)[C@@H]2CC[C@H]4C(C)(C)[C@@H](O[C@@H]5OC[C@H](O)[C@H](O)[C@H]5O)CC[C@@]45C[C@@]25CC[C@]31C` [NEOCIMICIGENOSIDE A], for which the Activity worked out at 7 ng/mL.

Regarding `CC(=O)O[C@H]1[C@H]2C[C@@H](C)[C@H]3[C@](O2)(OC1(C)C)[C@H](O)[C@@]1(C)[C@@H]2CC[C@H]4C(C)(C)[C@@H](O[C@@H]5OC[C@@H](O)[C@H](O)[C@H]5O)CC[C@@]45C[C@@]25CC[C@]31C` [NEOCIMICIGENOSIDE B], the Activity came out at 7.2 ng/mL.
